From patent US20120101164A1, “ABSCISSION AND CROP STORAGE UNIT” (TAMINCO, NAAMLOZE VENNOOTSCHAP, priority 2009, published 2012) come the findings set out here.

Molecules are shown by their SMILES. Where two headings read alike, the source gives them in different places.

What all share (assay type): in vivo
Test [1] has as its system PAPAVER Nudicaule (Iceland Poppy). In words: Petal abscission delay, auxins/precursors with or without AC. Particulars: for change in vivo at 10000 µM: Papaver nudicaule; for Total Duration of Flowering (to petal fall): auxin/precursor 10^-2 Molar solution, AC 3 g per hectare equivalent. As to the method: (§1) Cultural Details: plants were sown in a commercial seed compost and then “pricked out” into a professional grade all-purpose compost in 9 cm pots set out in a randomized block design. Normal daylight plus supplementary lighting to provide a minimum of 10 hours per day. Heating was given to a minimum of 60 degrees Fahrenheit during the day and 40 degrees at night.
Sowing Date: 18 Nov. […] Application Date: 5 Jan.
Measurement Date: 12 Jan.
A number of auxins or auxin precursors were applied, each at 10^−2 Molar solutions. Addition of acetaminophen (AC) was at 3 g per hectare equivalent in each test. Measurement: Delay of first petal fall for each treatment (in days).

Test [2] has as its system RADISH—cv F1 Apache. In words: Post-harvest shelf-life, auxins/precursors with or without AC. As to conditions: for change in vivo at 10000 µM: Raphanus sativus; for Shelf-Life Duration (days after harvest): ambient temperature, auxin/precursor 10^-2 Molar, AC 3 g per hectare equivalent, two applications. As to the method: as §1
Sowing Date: 3 Nov. […] Application Dates: 28 Dec. […] Harvest Date: 11 Jan. […] Measurement: Shelf-Life (days after harvest) at ambient temperature.
A number of auxins or auxin precursors were compared, each at 10^−2 Molar solutions. Addition of acetaminophen (AC) was at 3 g per hectare equivalent in each test.

For test [3], the system named is RADISH—cv F1 Apache. In words: Post-harvest shelf-life, AN or AN + AC with additives. As to conditions: for Shelf-Life Duration (days after harvest): AN 1 g per hectare, AC 3 g per hectare, additive rate per ha as in label. As to the method:
(§2) To each were added certain agrochemically acceptable additives, as examples.
as §1
Sowing Date: 28 Jan. 2010, in plugs. Application Date: 5 Mar. 2010.
Measurement Date: 13 Mar. 2010. • Measurement: Shelf-life duration (days).

For test [4], the system named is PAPAVER Nudicaule (Iceland Poppy). In words: Petal abscission delay, AN or AN + AC with additives. Particulars: for Total Duration of Flowering (to petal fall): AN 1 g per hectare, AC 3 g per hectare, additive rate per ha as in label. As to the method:
as §2, §1
Sowing Date: 19 Dec. 2009, in plugs. Application Date: 7 Feb. 2010.
Measurement Date: 12 Feb. 2010, at daily intervals.
Measurement: Delay of first petal-fall for each treatment (in days).

The mark [5] stands for this setting: duration of flowering, read-out: % Improvement over control.
Setting [6] is: shelf-life, read-out: % Improvement over control.
The mark [7] stands for this setting: read-out: % Improvement over control, duration of flowering.
Setting [8] is: read-out: % Improvement over control, shelf-life.
Setting [9] is: read-out: % Improvement over control.

For the compound `Nc1c(O)cccc1C(=O)O` [3-Hydroxyanthranilic acid], the change in vivo at 10000 µM in test [1] (setting [5]) stood at 18.4%; in test [2] (setting [6]), 15.9%. The “Total Duration of Flowering (to petal fall)” value (“Total Duration of Flowering” for short) in test [1] is listed as 11.6 days. Further, the “Shelf-Life Duration (days after harvest)” value in test [2] amounted to 7.3 days.

Regarding `CC(=O)Nc1ccc(O)cc1` [AC, N-(4-hydroxypheyl)acetamide, reference compound], the “Shelf-Life Duration (days after harvest)” value in test [3] was 5.8 days; in test [2] it was 6.2 days. Moreover, the change in vivo at 10000 µM in test [1] (setting [5]) and in test [2] (setting [6]) was 0% each time. In addition, the “Total Duration of Flowering” value in test [1] is listed as 9.9 days; in test [4] it was 8.8 days.

As for `CC(N)=O` [Acetamide], the values for the change in vivo at 10000 µM in test [1] (setting [5]) and in test [2] (setting [6]) were 19.4% and 38.1%, respectively. In addition, the “Total Duration of Flowering” value in test [1] is 11.7 days. Besides, in test [2], the “Shelf-Life Duration (days after harvest)” value was 8.7 days.

As to `Nc1ccccc1C(=O)[O-].[Na+]` [Anthranilic Acid monosodium salt], the change in vivo at 10000 µM in test [1] (setting [7]) worked out at 19.4%; in test [2] (setting [8]), 22.2%. In test [1], the “Total Duration of Flowering” value stood at 11.7 days. For the same compound, the “Shelf-Life Duration (days after harvest)” value in test [2] came out at 7.7 days.

Regarding `COC(=O)c1ccccc1N` [Anthranilic acid methyl ester], the change in vivo at 10000 µM in test [1] (setting [7]) was 23.5%; in test [2] (setting [8]), 38.1%. The “Total Duration of Flowering” value in test [1] came to 12.1 days. In addition, in test [2], the “Shelf-Life Duration (days after harvest)” value amounted to 8.7 days.

On to `Nc1ccccc1C(=O)O` [Anthranilic acid, anthranilic acid], for which the “Shelf-Life Duration (days after harvest)” value came to 8.5 days in test [3] and 8.6 days in test [2]. Besides, the figures for the “% Improvement over untreated” value in test [3] (shelf-life) and in test [4] (duration of flowering) were “+44.1%” and “+23.9%”, respectively. Moreover, the “Total Duration of Flowering” value in test [1] amounted to 12.2 days; in test [4] it was 10.9 days. In addition, the “% Improvement over control” value in test [1] (duration of flowering) was “+24.5%”; in test [2] (shelf-life) it was “+36.5%”. Also, in test [4] (duration of flowering), the “% Improvement over appropriate control (ie AN or AN + AC)” value is given as “+0.0%”.

`NC(=O)Cc1c[nH]c2ccccc12` [Indole-3-acetamide]: the change in vivo at 10000 µM was 21.4% in test [1] (setting [5]) and 3.2% in test [2] (setting [6]). In addition, the “Total Duration of Flowering” value in test [1] is on record as 11.9 days. Further, in test [2], the “Shelf-Life Duration (days after harvest)” value came to 6.5 days.

For `N[C@@H](Cc1c[nH]c2ccccc12)C(=O)O` [L-Tryptophan], the change in vivo at 10000 µM came to 10.2% in test [1] (setting [9]) and 3.2% in test [2] (setting [9]). For the same compound, the “Total Duration of Flowering” value in test [1] was 10.8 days. Also, in test [2], the “Shelf-Life Duration (days after harvest)” value came to 6.5 days.

For the compound `NCCc1c[nH]c2ccccc12` [Tryptamine], the change in vivo at 10000 µM in test [1] (setting [7]) stood at 19.4%; in test [2] (setting [8]), 11.1%. In test [1], the “Total Duration of Flowering” value was determined as 11.7 days. The “Shelf-Life Duration (days after harvest)” value in test [2] is reported as 7.0 days.
